Data set [1] concerns myogenin. Nature of the data set: Myogenin immunofluorescence staining in D-HSMM. The conditions noted are these: 48 h, optimum concentration, vs. D-HSMM control (untreated cells), FIG. 3A. The data set is classed as cell-based, human. The procedure:
The supernatant was removed, cells were washed with warm PBS (37° C.), fixed with 100 μl PBS containing 4% paraformaldehyde at room temperature for 10 mins. Cells were permeabilized with 100 μl of 0.25% Triton X-100 on PBS for 10 mins at 25° C. The cells were then blocked with 100 μl of 10% normal goat serum (NGS), incubated with 50 μl of primary anti-myogenin antibody (Cat no: MAB3876, Merck Millipore, USA) diluted 1:500 in block solution overnight at 4° C. Cells were washed in PBS (200 μl) three times, incubated with 50 μl Goat anti-Mouse IgG (H+L) secondary antibody (Cross adsorbed, Alexa Fluor 594, Cat no: R37121, Thermo Fisher Scientific, USA) at room temperature for 30 min. Nuclei were counterstained with 1 μg/ml Hoechst 33342 solution (Cat no: 62249, Thermo Fisher Scientific, USA) in PBS (100 μl/well). For each treatment, cells were examined under EVOS F1 Microscope (Cat no: AMF4300, Life Technologies, USA) and photographed. Approximately 10-12 digital photographs were taken of each treatment for subsequent offline analysis. The total number of immune-positive and immuno-negative cells were counted using Image J (NIH, USA) software. […] Data were presented as a percentage of control (untreated cells).

The subject of data set [2] is MAFbx/atrogin-1. Nature of the data set: Atrogin-1/Fbx32 immunofluorescence staining in D-HSMM. The format is cell-based, human. The conditions noted are these: 48 h, optimum concentration, vs. control (non-treated cells), FIG. 4A. How it is done: The supernatant was removed, cells were washed with warm PBS (37° C.), fixed with phosphate-buffered saline (PBS) containing 4% paraformaldehyde at room temperature for 10 mins. Cells were permeabilized with 0.25% Triton X-100 on PBS for 10 mins at 25° C. The cells were then blocked with 100 μl of 10% NGS in PBS at room temperature for 2 hours. The cells were then incubated with 50 μl primary Anti-Fbx32 antibody (Cat no: NBP2-76836, Novus Biological, USA) diluted 1:100 in block solution overnight at 4° C. Cells were washed in PBS three times (200 μl), incubated with 50 μl Goat anti-Rabbit IgG (H+L) (Cross adsorbed, Alexa Fluor 488, Cat no: R37116, Thermo Fisher Scientific, USA) secondary antibody at room temperature for 30 min. Nuclei were counterstained with 1 μg/ml Hoechst 33342 solution (Cat no: 62249, Thermo Fisher Scientific, USA) in PBS (100 μl/well). For each treatment, cells were examined under EVOS F1 Microscope (Cat no: AMF4300, Life Technologies, USA) and photographed. Approximately 10-12 digital photographs were taken of each treatment for subsequent offline analysis. The total number of immune-positive and immuno-negative cells were counted using Image J (NIH, USA) software. […] Data were presented as a percentage of control (untreated cells).

Data set [3] deals with Diseased Human Skeletal Muscle Myoblasts (D-HSMM) diabetes type II. Nature of the data set: LDH release cytotoxicity assay. The settings on record: D-HSMM myoblasts treated 48 h; W. Coagulans and Coagulansin-A 1×10^−15 g/ml; vs. control (non-treated cells); FIG. 2A. Background: Release of lactate dehydrogenase indicates damage to the cell membrane.
Description: Cell line: The Clonetics® Diseased Human Skeletal Muscle Myoblasts (D-HSMM) diabetes type II, (Cat no: CC-2901) sourced from a donor, were purchased from Lonza (Lonza Bioscience, USA).
Cells were cultured in the growth medium, Skeletal Muscle Growth Media-2 (SkGM-2; CC-3244) containing basal medium, Human epidermal growth factor (hEGF), Dexamethasone, L-glutamine, Fetal Bovine Serum (FBS), and Gentamicin/Amphotericin B (GA-1000). Cells were seeded at 6250 cells/cm^2 in T175 flasks and maintained at 37° C. in a humidified incubator (Thermo Scientific, USA) containing 5% carbon dioxide (CO2). After 24 hours, when cells adhered to the bottom of the flask, media was changed every 24-48 hours. […]
The cytotoxicity detection kit (Cat no: 11644793001, Roche, USA) was used to measure lactate dehydrogenase (LDH) release according to the manufacturer's instructions. Briefly, released LDH in culture supernatants was measured with a 30-mins coupled enzymatic assay that results in the reduction of tetrazolium salt, Iodotetrazolium chloride (INT) into a formazan (red). […] Absorbance at 490 nm was measured with an Emax Plus microplate reader (CA 94089, Molecular devices, USA). The reader was calibrated to zero absorbance using a culture medium without cells. The untreated cells served as the control, and results were calculated as the percentage of viability in relation to the control. […]
The test system of data set [4] is MyoD. Nature of the data set: MyoD1 immunofluorescence staining in D-HSMM. The data set is classed as cell-based, human. The settings on record: for MyoD positive cells: optimum concentration, vs. D-HSMM control (non-treated cells). How it is done:
The supernatant was removed, cells were washed with warm PBS (37° C.), fixed, and permeabilized with 100 μl phosphate-buffered saline (PBS) containing 4% paraformaldehyde and 0.1% Triton X-100 at room temperature for 10 mins. Next, cells were blocked with 1% BSA (100 μl) in PBS at room temperature for 1 hour. The cells were then incubated with 50 μl of primary anti-MyoD1 antibody (Cat no: ab16148, Abcam, USA), diluted 1:100 in a block solution, overnight at 4° C. Cells were washed in PBS three times, incubated with 50 μl Goat anti-Mouse IgG (H+L) secondary antibody (Cross adsorbed, Alexa Fluor 594, Cat no: R37121, Thermo Fisher Scientific, USA) at room temperature for 30 min. Nuclei were counterstained with 1 μg/ml Hoechst 33342 solution (Cat no: 62249, Thermo Fisher Scientific, USA) in PBS (100 μl/well). For each treatment, cells were examined under EVOS F1 Microscope (Cat no: AMF4300, Life Technologies, USA) and photographed. Approximately 10-12 digital photographs were taken of each treatment for subsequent offline analysis. The total number of immune-positive and immuno-negative cells were counted using Image J (NIH, USA) software. […] Data were presented as a percentage of control (untreated cells).

Data set [5] has as its system GLUT4. Nature of the data set: Total GLUT4 immunofluorescence in D-HSMM myotubes. The format is cell-based, human. The settings on record: FIG. 6B; for expression of GLUT-4: treated 24 h on day 8, 100 nM insulin challenge, vs. D-HSMM control (untreated cell). The procedure: Measurement of Total GLUT4: Approximately 2×10^3 cells were seeded in a 96 well clear bottom black poly D lysine (5 μg/cm^2) coated plate and allow to grow with a media change after every 48 h. […] The supernatant was removed and challenged for 5 mins with 100 nM insulin. Next, cells were washed with warm PBS (37° C.), fixed with phosphate-buffered saline (PBS) containing 4% paraformaldehyde at room temperature for 10 mins. Cells were permeabilized with 0.5% Triton X-100 on PBS for 10 mins at 25° C. The cells were then blocked with 100 μl of 10% NGS in PBS at room temperature for 2 hours. The cells were then incubated with 50 μl GLUT4 antibody (Cat no: NBP1-49533, Novus Biological, USA) diluted 1:100 in block solution overnight at 4° C. Cells were washed in PBS three times (200 μl), incubated with 50 μl Goat anti-Rabbit IgG (H+L) (Cross adsorbed, Alexa Fluor 488, Cat no: R37116, Thermo Fisher Scientific, USA) secondary antibody at room temperature for 30 min. Total fluorescence was measured m at […] (excitation/emission) by Tecan multimode plate reader (M200, Tecan, Switzerland). Cells without primary antibody were used for blank reduction. The relative GLUT 4 (%) related to control wells containing cells with DMEM:F12 medium was calculated by (RFU) test/(RFU) control×100. Where (RFU) test is the fluorescence of the test sample and (RFU) control is the fluorescence of the control sample.

Data set [6] concerns D-HSMM myotubes. Nature of the data set: Insulin-stimulated 2-NBDG glucose uptake in D-HSMM myotubes. The settings on record: FIG. 7. The data set is classed as cell-based, human. How it is done: Insulin-stimulated 2-NBDG uptake: The ability of the test compounds on insulin-stimulated glucose uptake was measured using the Glucose Uptake Cell-Based Assay Kit (Cat no: 600470, Cayman, Michigan, USA) according to the manufacturer's instructions. Briefly, the cells were seeded at a density of 2×10^3 cells/well in a 96 well black, clear-bottom poly D lysine coated plate and allowed to grow with a media change after every 48 hours. […] Subsequently, cells were washed with 300 μl PBS three times and incubated with PBS for 5 mins at 37° C., in a CO2 incubator. Cells were challenged for 20 min with 50 μl of 100 nM insulin and 50 μl of 100 μg/ml fluorescent glucose analog 2-deoxy-2-[(7-nitro-2,1,3-benzoxadiazol-4-yl) amino]-D-glucose (2-NBDG) in Krebs/Ringer buffer (KRB) (118.5 mM NaCl, 25 mM NaHCO3, 4.74 mM KCl, 1.19 mM MgSO4, 2.54 mM CaCl2, 10 mM HEPES, 1.19 mM KH2PO4, 0.1% BSA) (pH 7.4). At the end of the incubation, the plates were centrifuged for 3 mins at 400×g at room temperature, and the supernatant was aspirated. Cells were washed with 200 μl/well cell-based assay buffer and centrifuged for 3 mins at 400×g at room temperature. […] The fluorescence reading of each well was immediately measured (excitation/emission=485 nm/535 nm) by using a Tecan multimode plate reader (Cat no: M200, Tecan, Switzerland). […]

In data set [7] the test system is GLUT1. Nature of the data set: Cell-based GLUT1 ELISA in D-HSMM myotubes. More on the design: species or system human. The conditions noted are these: treated 24 h on day 8, FIG. 6A. The procedure:
After 24 hours, GLUT1 was measured by using CytoGlow™ cell-based GLUT 1 ELISA kit (Cat no: MBS95002558, MyBioSource, USA), according to the manufacturer's protocol. Briefly, cells were fixed with phosphate-buffered saline (PBS) containing 4% paraformaldehyde at room temperature for 20 mins. Next, cells were quenched for 20 mins at room temperature. Cells were washed in PBS three times, blocked at room temperature for 1 hour. Cells were washed in PBS three times, incubated with primary GLUTI antibody overnight at 4° C. Cells were washed in PBS three times (200 μl), incubated with HRP-conjugated secondary antibody at room temperature for 1.5 hours. Cells were washed in PBS three times and incubated with a ready-to-use substrate for 30 minutes at room temperature in the dark with gentle shaking on the shaker. The reaction was stopped, and OD was measured at 450 nm immediately using an Emax Plus microplate reader (Molecular devices, CA 94089, USA).

The test system of data set [8] is bovine embryo. The conditions noted are these: stated as background knowledge; cited from earlier work.
In data set [9] the test system is urease. The settings on record: stated as background knowledge; cited from earlier work.
The subject of data set [10] is Diseased Human Skeletal Muscle Myoblasts (D-HSMM) diabetes type II. The format is cell-based. How it is done: Measurement of cellular viability: Cell proliferation was measured by using MTT 3-(4,5-dimethylthiazol-2-yl)-2,5-diphenyltetrazolium bromide (MTT) (Cat no: M2128, Sigma Aldrich, USA). […] After 48 h of incubation, plates were removed from the CO2incubator and washed with 200 μl PBS. Thereafter, 100 μl of MTT solution (0.5 mg/ml in SkGM-2 medium) was added to each well. The contents were placed on a shaker for 5 min and were incubated for 4 hours in a CO2 incubator to allow the MTT to be metabolized. After incubation, the supernatant was removed, and the plate was washed with 300 μl PBS. The plates were inverted and strongly tapped on a paper towel to remove the medium completely. […] For the blank control, wells were set without cells but received all the reagents.

As to Insulin, the expression of myogenin result in [1] is recorded as “significantly increased expression”. Moreover, the “expression of atrogin1” value in data set [2] is given as “significantly suppressed expression”. Besides, in data set [3], the LDH release entry is listed as “significant decrease”. Moreover, the MyoD positive cells entry in data set [4] (D-HSMM, 48 h, FIG. 5A) is on record as “enhanced expression”. Also, the “expression of GLUT-4” value in data set [5] is on record as “upregulated”.

In the case of `CN(C)C(=N)N=C(N)N` [Metformin], the expression of myogenin result in data set [1] is reported as “remained unaffected”. Moreover, the “expression of atrogin1” value in data set [2] is “significantly suppressed expression”. Moreover, the MyoD positive cells result in data set [4] (D-HSMM, 48 h, FIG. 5A) was “did not show any difference”.

As for `CC1=C(CO)C(=O)O[C@@H]([C@](C)(O)[C@]2(O)CC[C@@]3(O)C4CC=C5CC=CC(=O)[C@]5(C)C4CC[C@]23C)C1` (stereo partly drawn) [Coagulansin-A, (14α, 17S,20S,22R)-14, 17,20,27-tetrahydroxy-1-oxowitha-2,5,24-trienolide)], the “insulin-stimulated glucose uptake (2-NBDG)” value in data set [6] (treated 24 h, vs. control (untreated cells)) is “significantly enhanced glucose uptake”. In addition, in data set [6] (vs. insulin, metformin, and pioglitazone), the “insulin-stimulated glucose uptake compared to positive controls” value is “increased glucose uptake”. In addition, in data set [1], the expression of myogenin entry was “significantly increased expression”. In addition, the “expression of GLUT1” value in data set [7] was “remained unaffected”. In addition, in [2], the “expression of atrogin1” value is reported as “significantly suppressed expression”. In addition, the “effects on development of bovine embryo” value in [8] is reported as “beneficial effects on development of bovine embryo”. Moreover, the antiurease activity result in data set [9] is on record as “antiurease activity”. Moreover, in [4] (D-HSMM myoblasts, 48 h, vs. metformin and pioglitazone treated cells, FIG. 5A), the “MyoD positive cells compared to metformin and pioglitazone” value is recorded as “Significantly increased MyoD positive cells”. Further, the MyoD positive cells entry in [4] (D-HSMM, 48 h, FIG. 5A) was “enhanced expression”. Also, the “MyoD positive cells, dose optimization” value in data set [4] (D-HSMM, concentration 10^−15 g/ml (of 10^−13, 10^−15, 10^−17 g/ml tested), vs. diabetic control, FIG. 9) is reported as “enhanced expression”. Moreover, in data set [10], the “MTT metabolic rate, dose optimization” value was “did not affect the metabolic rate” and the MTT viability entry is on record as “did not affect the viability”. Moreover, the “expression of GLUT-4” value in data set [5] is given as “upregulated”. For the same compound, the “expression of GLUT-4 compared to metformin” value in [5] (vs. metformin (as printed in text)) was “significant increase”.

Regarding `COc1ccc(Cl)cc1C(=O)NCCc1ccc(S(=O)(=O)NC(=O)NC2CCCCC2)cc1` [Glibenclamide, reference compound], the MyoD positive cells entry in data set [4] (D-HSMM, 48 h, FIG. 5A) is “enhanced expression”.

These data come from US20250195599A1, “ANTI-DIABETIC STEROIDAL LACTONES OF WITHANIA COAGULANS FOR TREATMENT OF TYPE 2 DIABETES” (Khalifa University of Science and Technology, priority 2022, published 2025).
